Test results from publication PMC5077990, “P53 activation inhibits all types of hematopoietic progenitors and all stages of megakaryopoiesis” (Oncotarget, 2016).
Where two headings read alike, the source gives them in different places.

Tested on: CFU-GM (Colony Forming Unit-Granulocyte Macrophage) progenitors from CD34+ cells
Test: Colony assay in methylcellulose, CFU-GM
Format: cell-based, human
Conditions: Homo sapiens, CFU-GM
Experimental: CD34^+cells were obtained from leukapheresis samples after mobilization of donors after informed consent in agreement with our Institute Ethic Committee (Assistance Publique des Hôpitaux de Paris) and in accordance with the Declaration of Helsinki. CD34^+cells were isolated by a positive selection using an immunomagnetic cell sorting system (AutoMacs; Miltenyi Biotec, Bergisch Gladbach, Germany). 500 to 1000 normal CD34^+cells were plated either in 1% methylcellulose assay (StemCells technologies, Vancouver, Canada) to quantify erythroid (BFU-E) and granulo-monocytic (CFU-GM) progenitors or in serum-free fibrin clot assay for quantification of MK progenitors (CFU-MK) in the absence or presence of various concentration of SAR405838 or MI-219. Cultures in methylcellulose were stimulated by addition of human recombinant growth factors: G-CSF (20 ng/mL), IL-3 (10 ng/mL) SCF (25 ng/mL, Biovitrum AB, Stockholm, Sweden), IL-6 (10 ng/mL), FLT3 (10 ng/mL) and human EPO (1 U/mL). Cultures in fibrin clot were stimulated with 10 ng/mL TPO (Kirin Brewery, Tokyo, Japan) and 25 ng/mL SCF. […] CFU-MK colonies were enumerated at day 12 after labeling by an indirect immuno-alkaline phosphatase staining technique using an anti-CD41a monoclonal antibody (MoAb; Becton Dickinson, le Pont de Claix, France; clone HIP8), as previously described.

CC(C)(C)C[C@@H]1N[C@@H](C(=O)N[C@H]2CC[C@H](O)CC2)[C@H](c2cccc(Cl)c2F)[C@]12C(=O)Nc1cc(Cl)ccc12 [SAR405838] showed an IC50 (72 h, CD34+ cells treated 3 days, washed, then plated in colony assay, read-out: IC50, reduction of CFU-GM progenitors) of roughly 2000 nM and an IC50 (CD34+ cells seeded in methylcellulose in the presence of compound, compared to untreated control, read-out: dose inducing a 50% reduction of CFU-GM numbers) of 500 to 1000 nM.
